Measured values: a melting point compilation (Tetko et al.; mined from patent text by program, amines drawn as free bases though some values may be those of a salt)

| Structure (SMILES) | melting point |
| --- | --- |
| CCC(OC(=O)C1CC1)c1ccc(Cl)c2nc3n(c12)CCCN3c1ccc(OC)cc1Cl (configuration not stated) | 130 to 132 °C |
| CCOC(=O)Cc1csc(NC(=O)c2ccc(F)cc2)n1 | 110 to 112 °C |
| Cc1ccc(S(=O)(=O)OCC2CCc3sc(C(C)C)nc3C2)cc1 (configuration not stated) | 82 to 83 °C |
| CN(c1cccc2c(F)c(C3=NCC(CC(=O)O)S3)[nH]c12)S(=O)(=O)c1cccs1 (configuration not stated) | 213 to 214 °C |
| COc1ccc2c(c1)CCC1=C2CCC2(C)C(O)CCC12 (configuration not stated) | 110 to 112 °C |
| NCCc1c[nH]c2ccc(-c3ccc(F)cc3)cc12 | > 250 °C |
| CCc1ccc(NS(=O)(=O)c2ccc(N3CCNC3=O)cc2)cc1 | 195 to 196 °C |
| O=C(c1ccc(Nc2ccncc2)cc1)N1CCCCC1 | 170 to 172 °C |
| O=c1c2cc(Oc3ccc(Cl)cc3)ccc2ccn1Cc1cccnc1 | 116 °C |
| CCNc1nc(Nc2ccccc2)ncc1CCC(=O)OCC | 106 to 107 °C |
| O=c1[nH]c(-c2ccc(CCN3CCN(c4cccc(C(F)(F)F)c4)CC3)cc2)cs1 | 285 to 287 °C |
| COC(=O)C(C(=O)OC)c1ccc(Br)cc1[N+](=O)[O-] | 86 to 88 °C |
| COc1ccc(Cc2c(C(=O)O)n(CC3CC3)c3ccccc23)cc1 | 162 to 163 °C |
| Cc1cc(-c2cc(C(F)(F)F)n3ncc(I)c3n2)ccc1Cl | 151 °C |
| OC(CNCCCn1cnc2ccccc21)c1ccc(OCc2ccccc2)cc1 (configuration not stated) | 83 to 85 °C |
| O=S(=O)(c1ccc(Cl)cc1)C(c1ccc(CO)cn1)c1cc(F)ccc1F (configuration not stated) | 151 to 152 °C |
| ON=C(c1ccc(Cl)cc1)c1ccc(Cl)cc1Cl | 98 to 100 °C |
| COc1ccnc(C(=O)c2[nH]c3cc(Cl)ccc3c2NC(C)=O)c1 | 207 to 208 °C |
| O=Cc1ccc(OC2OC(CO)C(O)C(O)C2O)cc1 (configuration not stated) | 177 °C |
| COc1ccc2cc([C@H](C)C(=O)NOCC(=O)OC(C)(C)C)ccc2c1 | 82 to 84 °C |
| CCCCCCOc1ccc2c(ccc3nc(OCCCCCC)ccc32)n1 | 91 °C |
| O=C1CCc2ncc3cc(F)ccc3c2N1 | 266 to 267 °C |
| CC(C)(C)c1cc(CCCOc2ccccc2NC(=O)NC2CCN(Cc3ccccc3)CC2)cc(C(C)(C)C)c1O | 148 to 149 °C |
| CNC(=O)c1cccc(NC(=O)NCc2ccccc2)c1 | 189 to 190 °C |
| CCc1nc2c(N)nc3ccccc3c2n1CC#Cc1cccc(C(F)(F)F)c1 | 202 to 204 °C |

| Structure (SMILES) | melting point |
| --- | --- |
| COC(=O)/C=C/c1c(F)cc2nn(C)cc2c1C(=O)OC | 130 to 132 °C |
| [O-][N+]1=C(c2ccccc2F)c2cc(Cl)ccc2C=CC1 | 138 to 139 °C |
| COc1ccc(-c2nc(-c3c[nH]c4ccccc34)[nH]c2-c2ccc(OC)cc2)cc1 | 246 °C |
| CC(C)(C)NC(=O)[C@@H]1CN(NC(=O)OC(C)(C)C)CCN1NC(=O)Cc1ccccc1 | 134 to 135 °C |
| CC(C)(C)CC1N(C(c2ccccc2)C(O)c2ccccc2)C(C(=O)NC2CCC(O)CC2)C(c2cccc(Cl)c2F)C12C(=O)Nc1cc(Cl)ccc12 (configuration not stated) | 190 °C |
| CC(C)(C)OC(=O)C[C@@H](CC1CCCC1)C(=O)N1C(=O)OC[C@@H]1Cc1ccccc1 | 113 to 119 °C |
| CCCCC(=O)Nc1ccc(Br)c(-n2nc(CC)n(Cc3ccc(-c4ccccc4S(=O)(=O)NC(=O)OC(C)(C)C)cc3F)c2=O)c1 | 108 to 110 °C |
| O=C(Oc1ccc2c(c1)CCCC2)Oc1ccc2c(c1)CCCC2 | 112 °C |
| CCn1nc(C#Cc2ccccc2)ccc1=O | 74 to 75 °C |
| CCCCCCCCCCCCOC(=O)c1ccc(O)c([N+](=O)[O-])c1 | 70 °C |
| O=C(O)COc1ccc(SCc2cccc(OCc3ccc(C(F)(F)F)cc3)c2)c2c1CCCO2 | 113 to 115 °C |
| O=C(c1ccccc1)c1ccc(C(=O)N2Cc3ccccc3Oc3ccccc32)cc1 | 103 to 106 °C |
| O=C(NCc1ccccc1)c1cnccc1-c1ccccc1 | 164 to 166 °C |
| COCCOCCOC(=O)C#CC(=O)/C=C/c1ccc(OC)cc1 | 41 to 42 °C |
| Cc1c(N)c(C)c2c(c1-c1ccccc1)OCC2c1ccc(C(C)C)cc1 (configuration not stated) | 101 to 102 °C |
| C=C(C)Cn1c(=O)n(C)c(=O)c2cc(Cc3ccc(OC)cc3)sc21 | 111 °C |
| CCOP(=O)(OCC)C1CCc2c(-n3cccc3)c(C(F)(F)F)cc3[nH]c(=O)c(=O)n1c23 (configuration not stated) | 268 °C |
| CC(C)(C)c1cc(CC(C)(C)[N+](=O)[O-])cc(C(C)(C)C)c1O | 101 to 104 °C |
| N=C(Nc1ccccc1I)Nc1cccc2ccccc12 | 154 to 155 °C |
| COCc1c(C(=O)OC(C)C)ncc2[nH]c3ccc(I)cc3c12 | 233 to 235 °C |
| COC(=O)c1cccc(CCN(C)CCCC(C#N)(C(=O)OC)c2ccc(OC)c(OC)c2)c1 (configuration not stated) | 94 to 95 °C |
| CC12CCC(O[Si](C)(C)C(C)(C)C)CC1=CC(=O)C1C2CCC2(C)C(O[Si](C)(C)C(C)(C)C)CCC12 (configuration not stated) | 99 to 101 °C |
| CCCCCCCCCC(=O)Cc1ccc(OCc2ccccc2)c(OCc2ccccc2)c1 | 68 °C |
| CCCNC(=O)Nc1ccc2oc([N+](=O)[O-])c(-c3ccccc3)c2c1 | 199 to 201 °C |
| O=C(NCC1CCOCC1)Nc1ccc(C(F)(F)F)cc1 | 148 to 149 °C |

| Structure (SMILES) | melting point |
| --- | --- |
| CC1(C(=O)NCCc2cccs2)CCCCC1 | 79 to 80 °C |
| CC(N)C(O)(c1ccccc1)c1ccccc1 (configuration not stated) | 44 to 45 °C |
| CN(C)c1ccc(N=Nc2ccc(C(=O)Nc3ccc4[nH]nnc4c3)cc2)cc1 | 246 °C |
| NS(=O)(=O)c1ccc(NCC(=O)NC2CCCCC2)cc1 | 223 to 225 °C |
| CC(C)(C)[Si](C)(C)OCc1cc(-c2ccc3nc(Cl)cn3c2)cs1 | 100 to 104 °C |
| O=S(=O)(Cl)c1cc(S(=O)(=O)Cl)c2cc(S(=O)(=O)Cl)cc(S(=O)(=O)Cl)c2c1 | 263 to 270 °C |
| CCOc1ccc(Cc2cn(C3OC(COC(C)=O)C(OC(C)=O)C(OC(C)=O)C3OC(C)=O)c3cccc(F)c23)cc1 (configuration not stated) | 146 to 148 °C |
| COc1cc2c(cc1O)/C(=N/OCc1ccc([N+](=O)[O-])cc1)CCC2 | 125 to 127 °C |
| CSCc1cn(C)c2cc(C(F)(F)F)ccc2c1=O | 182 to 184 °C |
| Oc1cnc2cc(F)ccc2n1 | 304 to 305 °C |
| N#Cc1ccccc1-c1ccc(CN2C(=O)C3(COc4cc5c(cc43)CCO5)c3ccccc32)cc1 (configuration not stated) | 192 to 194 °C |
| NC(=O)CCNC(=O)c1cccc(-c2cccc3oc(Cc4cccc(C(F)(F)F)c4)cc23)c1 | 155 to 156 °C |
| CC(O)C(CCCc1ccccc1)n1ncc2c(=O)[nH]c(Cc3ccc(F)cc3)nc21 (configuration not stated) | 103 °C |
| Oc1ccc2ccc(F)c(F)c2c1F | 91 °C |
| CC[Si](C#Cc1ccc2nc(-c3ncc[nH]3)nc(NCCOC)c2c1)(CC)CC | 158 to 160 °C |
| COc1cc(CCCCN(C)Cc2ccc(OC)c(OC)c2)ccc1NC(=O)c1cccc2c(=O)c3cccc(OC)c3[nH]c12 | 114 to 115 °C |
| CSc1ccc(-c2ccc(C(F)(F)F)cc2)nc1F | 70 to 73 °C |
| CCOC(=O)c1c(C)nc(N2CCN(C)CC2)c2nnn(CC)c12 | 63 to 65 °C |
| O=C(NCCO)c1cccc(-c2ccc3c(c2)N(Cc2cccc(Cl)c2Cl)CC3)c1 | 158 to 159 °C |
| CC(C)C(=O)OC1C(n2ccc(=O)[nH]c2=O)OC(COC(=O)c2ccc(Cl)cc2)C1(C#C[Si](C)(C)C)OC(=O)C(C)C (configuration not stated) | 160 to 161 °C |
| CC1=C(c2ccc(OCC(C)NCC(O)c3cccc(Cl)c3)cc2)CCC(=O)N1 (configuration not stated) | 99 to 104 °C |
| CC(C)N1C(=O)c2cnc(Cl)cc2C1=O | 94 to 96 °C |
| CON=C(C(=O)O)c1nc(NC=O)sc1Cl | 175 to 177 °C |
| COC(=O)C[C@H]1[C@H](NC(=O)OC(C)(C)C)CCN1C(=O)OCc1ccccc1 (relative stereo) | 73 to 74 °C |
| Cc1ccccc1N1CCc2nnc3c(C)cccc3c21 | 135 to 137 °C |

| Structure (SMILES) | melting point |
| --- | --- |
| CS(=O)N1CCSc2cccc(Cl)c2C1 (configuration not stated) | 82 to 84 °C |
| N#Cc1ccc(N2CCN(CC(=O)O)CC2=O)cc1 | 120 °C |
| Cc1ccc(C2=NOC(c3cc(Cl)cc(Cl)c3)(C(F)(F)F)C2)cc1Cl (configuration not stated) | 97 to 99 °C |
| CCOC(=O)C(Cc1cc(OC)c(OC)cc1OC)C(=O)OCC | 50 to 51 °C |
| O=C(NCCC(=O)N1CCOCC1)c1ccc(-c2ccc3nnn(Cc4ccc5ncccc5c4)c3n2)cc1F | 212 to 215 °C |
| CCN(CC)C(=O)c1ccc2ccccc2c1-c1ccc2ccccc2c1 | 159 to 161 °C |
| COc1cccc(N(CC(=O)N(C)c2ccccc2)C(=O)CNC(=O)Nc2cccc(C(C)O)c2)c1 (racemic) | 115 °C |
| C#CCNC(=O)c1c(Br)cccc1[Si](C)(C)C | 120 to 121 °C |
| COC(=O)c1ccc(C(=O)N2CCC(NC3CCOCC3)CC2)cc1 | 129 °C |
| CCOC(=O)c1cc2cc(OCCCS(C)(=O)=O)cc(N(C)S(=O)(=O)c3ccccn3)c2[nH]1 | 176 to 177 °C |
| C[C@H]1C(=O)C[C@@H]2C[C@H]1OO[C@]2(C)/C=C\c1ccc(C(F)(F)F)cc1Cl | 160 °C |
| CC(C)(C)C(F)(F)c1ccc(C[C@@H](NC(=O)c2cccc3c(Cl)cccc23)[C@@H](O)c2cccc(Cl)c2)cc1 (racemic) | 99 to 101 °C |
| C[Si]1(CC(CN)CC(=O)O)CCCCC1 (configuration not stated) | 140 to 143 °C |
| CC1C=CC(=O)OC1=O (configuration not stated) | 70 to 72 °C |
| Clc1ccc(-c2nc(Cl)nc(Cl)n2)c(Cl)c1 | 118 °C |
| COC(=O)c1sc(Cl)c(Cl)c1O | 107 to 108 °C |
| COC(=O)c1ccc2cc(O)ccc2c1 | 196 °C |
| O=C1CN=C(c2ccccc2Cl)c2cc(I)sc2N1 | 229 to 231 °C |
| C#CC(C)N1C(=O)c2ccccc2C1=O (configuration not stated) | 104 to 106 °C |
| CCOC(=O)c1cc([N+](=O)[O-])c(Cl)c(S(N)(=O)=O)c1 | 154 °C |
| O=C(O)CCC(=O)c1ccc(-n2cnc3c2CCCC3)cc1 | 234 to 235 °C |
| COc1ccc(-c2[nH]nc3c2C(=O)c2c(NC(=O)CCl)cccc2-3)cc1 | 274 °C |
